Experimental findings from patent US20230218765A1, “SMALL MOLECULE DEGRADERS OF SHP2 PROTEIN” (THE REGENTS OF THE UNIVERSITY OF MICHIGAN, priority 2020, published 2023) are described below.

Assay [1] concerns the target T1, SHP2 (Homo sapiens, UniProt Q06124).
T1 sequence (Q06124 1-593): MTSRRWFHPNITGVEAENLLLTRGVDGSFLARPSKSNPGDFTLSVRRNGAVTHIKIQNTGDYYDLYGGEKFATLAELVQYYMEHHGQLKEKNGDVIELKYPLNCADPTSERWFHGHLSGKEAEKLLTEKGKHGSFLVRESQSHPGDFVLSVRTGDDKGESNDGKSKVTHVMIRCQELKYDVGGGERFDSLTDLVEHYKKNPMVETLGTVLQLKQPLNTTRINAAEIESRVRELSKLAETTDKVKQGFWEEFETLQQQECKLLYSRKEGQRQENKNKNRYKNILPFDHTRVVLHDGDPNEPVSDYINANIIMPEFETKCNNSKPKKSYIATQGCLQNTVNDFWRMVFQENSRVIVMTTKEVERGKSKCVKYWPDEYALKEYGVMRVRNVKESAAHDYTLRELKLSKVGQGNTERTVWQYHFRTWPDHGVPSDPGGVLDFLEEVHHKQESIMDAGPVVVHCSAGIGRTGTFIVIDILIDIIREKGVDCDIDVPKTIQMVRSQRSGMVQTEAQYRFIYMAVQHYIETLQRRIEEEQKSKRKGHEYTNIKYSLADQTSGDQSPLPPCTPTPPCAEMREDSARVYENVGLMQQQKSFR
Put plainly: SHP2 degradation by Western blot in KYSE520 cells. The conditions noted are these: for block of SHP2-D26-induced degradation of SHP2 protein: KYSE520, pre-treatment 1 h (VHL 10 µM, compound 4 10 µM, MLN4924 0.5 µM, MG132 3 µm), then SHP2-D26 0.1 µM.
Experimental: (§1) Western blotting and quantification were performed with regular western blot method and band quantification was performed using ImageJ. Treated cells were lysed by RIPA buffer supplemented with protease and phosphatase inhibitors. […] The net protein bands and loading controls are calculated by deducting the background from the inverted band value. The final relative quantification values are the ratio of the net band to net loading control.
(§2) The treated cells were harvested and the level of SHP2 protein was examined by blot analysis. GAPDH was used as a loading control.
(§3) SHP2 protein was examined by Western blotting and the protein level was quantified by densitometry and normalized to the corresponding density of the GAPDH protein. […] Cells were treated with 100 nM of SHP2-D26 for different times. SHP2 protein was examined by Western blotting and the GAPDH protein was used as the loading control.

For assay [2], the target named is T1, SHP2. Nature of the assay: SHP2 degradation by Western blot in MV4;11 cells. The following applies: 0.1 µM.
Experimental: as §1, §2, §3

Where a SMILES comes first, the peptide text is derived from it. The star is where a group is joined. Cbz = O=C(OCc1ccccc1)* Where only a bound is given, the exact number is not on record here.

Take `Cc1ncsc1-c1ccc([C@@H](C)NC(=O)[C@H]2C[C@H](O)CN2C(=O)[C@H](NC(=O)CCCNC(=O)CC(=O)Nc2cccc(Sc3ncc(N4CCC(C)(N)CC4)nc3N)c2Cl)C(C)(C)C)cc1` [Compound 8]: the results for the “% of SHP2 protein degradation in KYSE520 cell line” value on SHP2 [1] (0.1 µM) and on SHP2 [1] (1 µM) were 9% and 7%, respectively.
For `Cc1ncsc1-c1ccc([C@@H](C)NC(=O)[C@H]2C[C@H](O)CN2C(=O)[C@H](NC(=O)CCCCNC(=O)CC(=O)Nc2cccc(Sc3ncc(N4CCC(C)(N)CC4)nc3N)c2Cl)C(C)(C)C)cc1` [Compound 9] the same measures were 13% and 6%.
For `Cc1ncsc1-c1ccc([C@@H](C)NC(=O)[C@H]2C[C@H](O)CN2C(=O)[C@H](NC(=O)CCCCCNC(=O)CC(=O)Nc2cccc(Sc3ncc(N4CCC(C)(N)CC4)nc3N)c2Cl)C(C)(C)C)cc1` [Compound 10] the same measures were 0% and 3%.
For `Cc1ncsc1-c1ccc([C@@H](C)NC(=O)[C@H]2C[C@H](O)CN2C(=O)[C@H](NC(=O)CCCCCCNC(=O)CC(=O)Nc2cccc(Sc3ncc(N4CCC(C)(N)CC4)nc3N)c2Cl)C(C)(C)C)cc1` [Compound 11] the same measures were 0% and 0%.
`Cc1ncsc1-c1ccc([C@@H](C)NC(=O)[C@H]2C[C@H](O)CN2C(=O)[C@H](NC(=O)CCCCCCCNC(=O)CC(=O)Nc2cccc(Sc3ncc(N4CCC(C)(N)CC4)nc3N)c2Cl)C(C)(C)C)cc1` [Compound 12]: the entries for the “% of SHP2 protein degradation in KYSE520 cell line” value at SHP2 [1] (0.1 µM) and on SHP2 [1] (1 µM) were 20% and 14%, respectively.
For `Cc1ncsc1-c1ccc([C@@H](C)NC(=O)[C@H]2C[C@H](O)CN2C(=O)[C@H](NC(=O)CCCCCCCCNC(=O)CC(=O)Nc2cccc(Sc3ncc(N4CCC(C)(N)CC4)nc3N)c2Cl)C(C)(C)C)cc1` [Compound 13] the same measures were 81% and 80%.
`Cc1ncsc1-c1ccc([C@@H](C)NC(=O)[C@H]2C[C@H](O)CN2C(=O)[C@H](NC(=O)CCCCCCCCCNC(=O)CC(=O)Nc2cccc(Sc3ncc(N4CCC(C)(N)CC4)nc3N)c2Cl)C(C)(C)C)cc1` [Compound 14]: the “% of SHP2 protein degradation in KYSE520 cell line” value is >95% at SHP2 [1] (0.1 µM) and 92% at SHP2 [1] (1 µM).
In the case of `Cc1ncsc1-c1ccc([C@@H](C)NC(=O)[C@H]2C[C@H](O)CN2C(=O)[C@H](NC(=O)CCCCCCCCCCNC(=O)CC(=O)Nc2cccc(Sc3ncc(N4CCC(C)(N)CC4)nc3N)c2Cl)C(C)(C)C)cc1` [Compound 15], the “% of SHP2 protein degradation in KYSE520 cell line” value at SHP2 [1] (0.1 µM) and on SHP2 [1] (1 µM) was >95% throughout.
Take `Cc1ncsc1-c1ccc([C@@H](C)NC(=O)[C@H]2C[C@H](O)CN2C(=O)[C@H](NC(=O)CCCCCCCCCCCNC(=O)CC(=O)Nc2cccc(Sc3ncc(N4CCC(C)(N)CC4)nc3N)c2Cl)C(C)(C)C)cc1` [Compound 16]: the “% of SHP2 protein degradation in KYSE520 cell line” value on SHP2 [1] (0.1 µM) is >95%; on SHP2 [1] (1 µM), 93%.
For `Cc1ncsc1-c1ccc([C@@H](C)NC(=O)[C@H]2C[C@H](O)CN2C(=O)[C@H](NC(=O)CCCCCCCCCCNC(=O)CCC(=O)Nc2cccc(Sc3ncc(N4CCC(C)(N)CC4)nc3N)c2Cl)C(C)(C)C)cc1` [Compound 17] the same measures were >95% and >95%.
`Cc1ncsc1-c1ccc([C@@H](C)NC(=O)[C@H]2C[C@H](O)CN2C(=O)[C@H](NC(=O)CCCCCCCCCCCNC(=O)CCC(=O)Nc2cccc(Sc3ncc(N4CCC(C)(N)CC4)nc3N)c2Cl)C(C)(C)C)cc1` [Compound 18]: the “% of SHP2 protein degradation in KYSE520 cell line” value at SHP2 [1] (0.1 µM) and on SHP2 [1] (1 µM) was >95% throughout.
With `Cc1ncsc1-c1ccc([C@@H](C)NC(=O)[C@H]2C[C@H](O)CN2C(=O)[C@H](NC(=O)CCCCCCCCCCCNC(=O)CCCC(=O)Nc2cccc(Sc3ncc(N4CCC(C)(N)CC4)nc3N)c2Cl)C(C)(C)C)cc1` [Compound 19], the “% of SHP2 protein degradation in KYSE520 cell line” value at SHP2 [1] (0.1 µM) and on SHP2 [1] (1 µM) was >95% throughout.
For `Cc1ncsc1-c1ccc([C@@H](C)NC(=O)[C@H]2C[C@H](O)CN2C(=O)[C@H](NC(=O)COCCOCCOCCNC(=O)CCC(=O)Nc2cccc(Sc3ncc(N4CCC(C)(N)CC4)nc3N)c2Cl)C(C)(C)C)cc1` [Compound 20], the “% of SHP2 protein degradation in KYSE520 cell line” value at SHP2 [1] (0.1 µM) is recorded as 80%; on SHP2 [1] (1 µM), >95%. On SHP2 [2], the “% of SHP2 protein degradation in MV4;11 cell line” value is on record as >95%.
On to `Cc1ncsc1-c1ccc([C@@H](C)NC(=O)[C@H]2C[C@H](O)CN2C(=O)[C@H](NC(=O)CCOCCOCCOCCNC(=O)CCC(=O)Nc2cccc(Sc3ncc(N4CCC(C)(N)CC4)nc3N)c2Cl)C(C)(C)C)cc1` [Compound 21], for which the “% of SHP2 protein degradation in KYSE520 cell line” value stood at 32% on SHP2 [1] (0.1 µM) and 87% at SHP2 [1] (1 µM). For the same molecule, on SHP2 [2], the “% of SHP2 protein degradation in MV4;11 cell line” value is listed as 85%.
For `Cc1ncsc1-c1ccc([C@@H](C)NC(=O)[C@H]2C[C@H](O)CN2C(=O)[C@H](NC(=O)COCCOCCOCCOCCNC(=O)CCC(=O)Nc2cccc(Sc3ncc(N4CCC(C)(N)CC4)nc3N)c2Cl)C(C)(C)C)cc1` [Compound 22] the same measures were 53%, >95% and 95%.
For `Cc1ncsc1-c1ccc([C@@H](C)NC(=O)[C@H]2C[C@H](O)CN2C(=O)[C@H](NC(=O)CCCCCCCCCCCN2CCN(CC(=O)Nc3cccc(Sc4ncc(N5CCC(C)(N)CC5)nc4N)c3Cl)CC2)C(C)(C)C)cc1` [Compound 24] the same measures were 80%, >95% and 6%.
With `Cc1ncsc1-c1ccc([C@@H](C)NC(=O)[C@H]2C[C@H](O)CN2C(=O)[C@H](NC(=O)CCCCCCCCCCCCCCC(=O)Nc2cccc(Sc3ncc(N4CCC(C)(N)CC4)nc3N)c2Cl)C(C)(C)C)cc1` [Compound 25], the “% of SHP2 protein degradation in KYSE520 cell line” value on SHP2 [1] (0.1 µM) was found to be 62%; at SHP2 [1] (1 µM), 90%. In addition, on SHP2 [2], the “% of SHP2 protein degradation in MV4;11 cell line” value is listed as 8%.
For `Cc1ncsc1-c1ccc([C@@H](C)NC(=O)[C@H]2C[C@H](O)CN2C(=O)[C@H](NC(=O)CCCCCCCCCN2CCN(C(=O)CCC(=O)Nc3cccc(Sc4ncc(N5CCC(C)(N)CC5)nc4N)c3Cl)CC2)C(C)(C)C)cc1` [Compound 27] the same measures were >95%, >95% and >95%.
For the molecule `CC(C)C[C@@H](C=O)NC(=O)[C@H](CC(C)C)NC(=O)[C@H](CC(C)C)NC(=O)OCc1ccccc1` [MG132, reference compound] (Cbz-Leu-Leu-Leu-aldehyde), at SHP2 [1], the “block of SHP2-D26-induced degradation of SHP2 protein” value is “effectively block degradation of SHP2 protein”.
Same read-out and setting: as for `NS(=O)(=O)OC[C@@H]1C[C@@H](n2ccc3c(N[C@H]4CCc5ccccc54)ncnc32)C[C@@H]1O` [MLN4924, reference compound], the entry is “effectively block degradation of SHP2 protein”.
